Results reported in PubChem BioAssay (NCI).
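Protocol summary: plate cells (96-well), add compound at 5 concentrations, incubate 48 h, interpolate endpoints linearly. Definition used: TGI = concentration required for complete inhibition of growth.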

How the values were obtained:
Assay in all cases: NCI-60 cell line screen, 48 h
786-0 renal = system: 786-0 renal
A498 renal = system: A498 renal
A549 NSCLC = system: A549 NSCLC
ACHN renal = system: ACHN renal
BT-549 breast = system: BT-549 breast
CAKI-1 renal = system: CAKI-1 renal
CCRF-CEM leukemia = system: CCRF-CEM leukemia
COLO 205 colon = system: COLO 205 colon
DU-145 prostate = system: DU-145 prostate
EKVX NSCLC = system: EKVX NSCLC
HCT-116 colon = system: HCT-116 colon
HCT-15 colon = system: HCT-15 colon
HOP-62 NSCLC = system: HOP-62 NSCLC
HOP-92 NSCLC = system: HOP-92 NSCLC
HS 578T breast = system: HS 578T breast
HT29 colon = system: HT29 colon
IGROV1 ovarian = system: IGROV1 ovarian
K-562 leukemia = system: K-562 leukemia
KM12 colon = system: KM12 colon
LOX IMVI melanoma = system: LOX IMVI melanoma
M14 melanoma = system: M14 melanoma
MALME-3M melanoma = system: MALME-3M melanoma
MDA-MB-231 breast = system: MDA-MB-231 breast
MDA-MB-435 = system: MDA-MB-435
MDA-N = system: MDA-N
MOLT-4 leukemia = system: MOLT-4 leukemia
NCI-H226 lung = system: NCI-H226 lung
NCI-H23 lung = system: NCI-H23 lung
NCI-H522 lung = system: NCI-H522 lung
NCI/ADR-RES ovarian = system: NCI/ADR-RES ovarian
OVCAR-3 ovarian = system: OVCAR-3 ovarian
OVCAR-4 ovarian = system: OVCAR-4 ovarian
OVCAR-5 ovarian = system: OVCAR-5 ovarian
OVCAR-8 ovarian = system: OVCAR-8 ovarian
PC-3 prostate = system: PC-3 prostate
RPMI-8226 leukemia = system: RPMI-8226 leukemia
RXF 393 renal = system: RXF 393 renal
SF-268 CNS = system: SF-268 CNS
SF-295 CNS = system: SF-295 CNS
SK-MEL-2 melanoma = system: SK-MEL-2 melanoma
SK-MEL-28 melanoma = system: SK-MEL-28 melanoma
SK-MEL-5 melanoma = system: SK-MEL-5 melanoma
SK-OV-3 ovarian = system: SK-OV-3 ovarian
SN12C renal = system: SN12C renal
SNB-19 CNS = system: SNB-19 CNS
SNB-75 CNS = system: SNB-75 CNS
SW-620 colon = system: SW-620 colon
T-47D breast = system: T-47D breast
TK-10 renal = system: TK-10 renal
U251 CNS = system: U251 CNS
UACC-257 melanoma = system: UACC-257 melanoma
UACC-62 melanoma = system: UACC-62 melanoma
UO-31 renal = system: UO-31 renal

C[C@@H](CO)C1=C(O)c2ccc3c(c2C(=O)C1=O)CCCC3(C)C
TGI (786-0 renal): > 100 µM
TGI (A498 renal): > 100 µM
TGI (A549 NSCLC): > 100 µM
TGI (ACHN renal): 43.2 µM
TGI (BT-549 breast): > 100 µM
TGI (CAKI-1 renal): > 100 µM
TGI (CCRF-CEM leukemia): 34 µM
TGI (COLO 205 colon): > 100 µM
TGI (DU-145 prostate): > 100 µM
TGI (EKVX NSCLC): > 100 µM
TGI (HCT-116 colon): > 100 µM
TGI (HCT-15 colon): > 100 µM
TGI (HOP-62 NSCLC): > 100 µM
TGI (HOP-92 NSCLC): > 100 µM
TGI (HS 578T breast): > 100 µM
TGI (HT29 colon): > 100 µM
TGI (IGROV1 ovarian): > 100 µM
TGI (K-562 leukemia): > 100 µM
TGI (KM12 colon): > 100 µM
TGI (LOX IMVI melanoma): > 100 µM
TGI (M14 melanoma): 40.6 µM
TGI (MALME-3M melanoma): 50 µM
TGI (MDA-MB-231 breast): > 100 µM
TGI (MDA-MB-435): > 100 µM
TGI (MDA-N): > 100 µM
TGI (MOLT-4 leukemia): > 100 µM
TGI (NCI-H226 lung): > 100 µM
TGI (NCI-H23 lung): 56.1 µM
TGI (NCI-H522 lung): 62.6 µM
TGI (NCI/ADR-RES ovarian): > 100 µM
TGI (OVCAR-3 ovarian): > 100 µM
TGI (OVCAR-4 ovarian): > 100 µM
TGI (OVCAR-5 ovarian): > 100 µM
TGI (OVCAR-8 ovarian): > 100 µM
TGI (PC-3 prostate): > 100 µM
TGI (RPMI-8226 leukemia): > 100 µM
TGI (RXF 393 renal): > 100 µM
TGI (SF-268 CNS): > 100 µM
TGI (SF-295 CNS): > 100 µM
TGI (SK-MEL-2 melanoma): 84.7 µM
TGI (SK-MEL-28 melanoma): > 100 µM
TGI (SK-MEL-5 melanoma): > 100 µM
TGI (SK-OV-3 ovarian): > 100 µM
TGI (SN12C renal): > 100 µM
TGI (SNB-19 CNS): 68.9 µM
TGI (SNB-75 CNS): > 100 µM
TGI (SW-620 colon): > 100 µM
TGI (T-47D breast): > 100 µM
TGI (TK-10 renal): > 100 µM
TGI (U251 CNS): > 100 µM
TGI (UACC-257 melanoma): > 100 µM
TGI (UACC-62 melanoma): 77.4 µM
TGI (UO-31 renal): > 100 µM
